# Measurements taken from PubChem BioAssay AID330 (DTP/NCI, 2004).
# Several values for one entry are separate records, joined by “and”; a condition that tells them apart may be missing. Equal values may be shown once. Inconclusive results and toxic doses are left out.
# Test system: P388 leukemia ip, CD2F1 mice, survival T/C
# Test: NCI In Vivo Anticancer Drug Screen. Data for tumor model P388 Leukemia (intraperitoneal) in CD2F1 (CDF1) mice
# Settings: endpoint: median survival time, higher = longer survival
# Summary of the method: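 Mice carrying the transplanted tumor received test compound or vehicle. Survival was recorded in each group, and the value is the treated-group measurement divided by that of the vehicle-treated control group.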
# [1] = dose: 50.0 mg/kg/injection, schedule: Q01DX009 (ip), vehicle: saline with Tween-80
# [2] = dose: 100.0 mg/kg/injection, schedule: Q01DX009 (ip), vehicle: saline with Tween-80
structure (smiles),measurement,setting,value
CN(C)CCCNC1=C(Cl)C(=O)C(NCCCN(C)C)=C(Cl)C1=O,T/C,"dose: 6.25 mg/kg/injection, schedule: Q01DX009 (ip), vehicle: saline",91 % of control
same,T/C,"dose: 12.5 mg/kg/injection, schedule: Q01DX009 (ip), vehicle: saline",94 % of control
same,T/C,"dose: 25.0 mg/kg/injection, schedule: Q01DX009 (ip), vehicle: saline",111 % of control
same,T/C,"dose: 50.0 mg/kg/injection, schedule: Q01DX009 (ip), vehicle: saline",89 % of control
COc1ccc2c(C)cc(N/N=C(\C)c3cn(C)n(-c4ccccc4)c3=O)nc2c1,T/C,"dose: 12.5 mg/kg/injection, schedule: Q01DX005 (ip), vehicle: Klucel (hydroxypropylcellulose) (HPC)",98 % of control
same,T/C,"dose: 25.0 mg/kg/injection, schedule: Q01DX005 (ip), vehicle: Klucel (hydroxypropylcellulose) (HPC)",95 % of control
same,T/C,"dose: 50.0 mg/kg/injection, schedule: Q01DX005 (ip), vehicle: Klucel (hydroxypropylcellulose) (HPC)",101 % of control and 93 % of control
same,T/C,"dose: 100.0 mg/kg/injection, schedule: Q01DX005 (ip), vehicle: Klucel (hydroxypropylcellulose) (HPC)",110 % of control
Cl/N=C(\Nc1ccccc1)c1ccccn1,T/C,[1],105 % of control
same,T/C,[2],96 % of control
O=C(Nc1cccc(Cl)c1)OCCCc1ccncc1,T/C,[1],96 % of control
same,T/C,[2],96 % of control
C/C(=N\N=C(\[Se])N(C)C)c1ccccn1,T/C,"dose: 12.5 mg/kg/injection, schedule: Q04DX003 (ip), vehicle: saline with Tween-80",106 % of control
same,T/C,"dose: 25.0 mg/kg/injection, schedule: Q04DX003 (ip), vehicle: saline with Tween-80",106 % of control
same,T/C,"dose: 50.0 mg/kg/injection, schedule: Q04DX003 (ip), vehicle: saline with Tween-80",106 % of control
CC(=O)/C(=C\c1ccc(Cl)c(Cl)c1)C(=O)CCN(C)C,T/C,"dose: 12.5 mg/kg/injection, schedule: Q01DX005 (ip), vehicle: saline",110 % of control and 117 % of control
same,T/C,"dose: 25.0 mg/kg/injection, schedule: Q01DX005 (ip), vehicle: saline with Tween-80",117 % of control
same,T/C,"dose: 25.0 mg/kg/injection, schedule: Q01DX005 (ip), vehicle: saline",100 % of control and 107 % of control
same,T/C,"dose: 50.0 mg/kg/injection, schedule: Q01DX005 (ip), vehicle: saline",110 % of control and 111 % of control
same,T/C,"dose: 100.0 mg/kg/injection, schedule: Q01DX005 (ip), vehicle: saline with Tween-80",151 % of control
Cc1ccc2c(C)c3c(ccc4ccccc43)c[n+]2c1,T/C,"dose: 2.5 mg/kg/injection, schedule: Q04DX003 (ip), vehicle: other",103 % of control
same,T/C,"dose: 5.0 mg/kg/injection, schedule: Q04DX003 (ip), vehicle: other",101 % of control
same,T/C,"dose: 10.0 mg/kg/injection, schedule: Q04DX003 (ip), vehicle: other",100 % of control
same,T/C,"dose: 20.0 mg/kg/injection, schedule: Q04DX003 (ip), vehicle: other",104 % of control
CC(C)CC(N)CO (configuration not stated),T/C,"dose: 50.0 mg/kg/injection, schedule: Q01DX005 (ip), vehicle: suspension in saline",105 % of control
same,T/C,"dose: 100.0 mg/kg/injection, schedule: Q01DX005 (ip), vehicle: suspension in saline",106 % of control
same,T/C,"dose: 200.0 mg/kg/injection, schedule: Q01DX005 (ip), vehicle: suspension in saline",106 % of control
NNC(=O)c1ccccc1N,T/C,"dose: 25.0 mg/kg/injection, schedule: Q01DX009 (ip), vehicle: water",96 % of control
same,T/C,"dose: 50.0 mg/kg/injection, schedule: Q01DX009 (ip), vehicle: water",96 % of control
c1ccc(CN2CC[N+](Cc3ccccc3)=C2C2=[N+](Cc3ccccc3)CCN2Cc2ccccc2)cc1,T/C,"dose: 12.5 mg/kg/injection, schedule: Q01DX009 (ip), vehicle: suspension in saline",89 % of control
same,T/C,"dose: 25.0 mg/kg/injection, schedule: Q01DX009 (ip), vehicle: suspension in saline",96 % of control
same,T/C,"dose: 50.0 mg/kg/injection, schedule: Q01DX009 (ip), vehicle: suspension in saline",91 % of control
